Here are results for one substance from patent US20250129370A1, “METHOD FOR REDUCING HEPATIC TRIGLYCERIDES” (ADAERATA, LIMITED PARTNERSHIP, priority 2022, published 2025).

Series [1] relates to 3′-UTR of human PCSK7 mRNAs. Nature of the series: Dual-luciferase reporter assay, wild-type PCSK7 3′-UTR, HEK293T cells. The following applies: wild-type PCSK7 3′-UTR psiCHECK-2, HEK293T. Type of series: cell-based. The text has this:
The interactions between the miRNAs and their probable targets on PCSK7 were explored by cloning the potential target regions in psiCHECK-2™ (Promega, USA), a luciferase reporter vector. In psiCHECK-2™, hRluc, the Renilla luciferase gene, is located upstream of the target regions of interest cloned into the psiCHECK-2™ vector downstream of the Renilla gene. The region corresponding to the 3′-UTR of PCSK7 (926-nt sequences in length) that constituted the predicted miRNA response elements was PCR-amplified and cloned downstream of the Renilla luciferase gene in the psiCHECK-2™ vector (Promega, USA). […]
The HEK293T cells were co-transfected through the application of the wild-type psiCHECK-2, the wild-type PCSK7 3′-UTR, the mutant PCSK7 3′-UTR, and the miR-overexpressing vectors so that the direct interactions of the nominated miRNAs with PCSK7 3′-UTR could be investigated. […] Transfection efficiency was monitored by fluorescent microscopy (Nikon TE2000S, Japan) 36 hours following the procedure.
The PsiCHECK-2 reporter construct plasmid contained the Renilla luciferase gene upstream of PCSK7 3′-UTR and an independent firefly luciferase gene as an internal control for normalization. […] Then, LARII Reagent was added, and after 20 minutes, the firefly luciferase activity was measured as a control. Afterward, Renilla activity was determined using Stop & Glo Reagent. […]

The subject of another series is human PCSK9. Nature of the series: Western blot of PCSK9 protein in Huh7 cells co-transfected with miRNA vectors. Type of series: cell-based. To be noted: Huh7, selectivity control. On the procedure:
Western blot analysis was conducted to determine whether miR-125a-5p affected the functional activity of […] PC7 in Huh7 cells. A wild-type human PC7-overexpressing vector was co-transfected with pre-miR-125a-5p and pre-miR-224-5p-overexpressing plasmids in Huh7 cells. […] As control, a human PCSK9-overexpressing vector was co-transfected with miR-125a-5p and miR-224-5p vectors in Huh7 cells, whereby these miRNAs had no effect on the expression level of PCSK9 protein (not shown).

On to “miR-125a-5p: miRNA targeting PCSK7 3′-UTR and exons 14 and 15, overexpressed from pEGFP-C1 precursor vector (UCCCUGAGACCCUUUAACCUGUGA; miRNA expressed from a pEGFP-C1 precursor vector, further chemistry not given here)”, for which the “reduction of relative luciferase activity” value in series [1] is around 50%. Besides, in the series on human PCSK9, the “expression level of PCSK9 protein” value is “no effect”.
